Drawing on PubChem BioAssay (NCI), this text covers GI50 and TGI for 7 compounds.

Some test systems named below: IGROV1 ovarian; UACC-62 melanoma; A498 renal; EKVX NSCLC; OVCAR-8 ovarian; UO-31 renal; HOP-62 NSCLC; HCT-15 colon; SNB-19 CNS; NCI/ADR-RES ovarian.
Holding throughout (experiment): NCI anticancer screen, dose series, 48 h

SMILES strings stand for the structures.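 Following 48 hours of exposure in 96-well plates, responses at five concentrations were used to interpolate endpoints linearly. The concentration for 50% growth inhibition is given as GI50. TGI denotes the concentration required for complete inhibition of growth.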

Turning to `N#CC1c2ccccc2-c2ccccc2N1C(=O)c1ccccc1` (stereo not given), the GI50 is 2.66 µM with IGROV1 ovarian; 1.9 µM with UACC-62 melanoma; 1.32 µM in the test on A498 renal; 7.2 µM in the test with EKVX NSCLC; 3.63 µM with OVCAR-8 ovarian; 3.63 µM in the test with UO-31 renal. Further, the GI50 in the test with HOP-62 NSCLC was 4.46 µM; in the test on HCT-15 colon, 1.38 µM; in the test on SNB-19 CNS it was 4.12 µM; in the test with NCI/ADR-RES ovarian it was 1.81 µM. For the same compound, the TGI with IGROV1 ovarian is 7.01 µM; in the test with UACC-62 melanoma it was greater than 38.5 µM; in the test with A498 renal, 5.55 µM; with EKVX NSCLC, greater than 100 µM; with OVCAR-8 ovarian it was 96.9 µM; with UO-31 renal it was greater than 59.4 µM. Also, the TGI in the test on HOP-62 NSCLC, in the test on HCT-15 colon, in the test on SNB-19 CNS and in the test on NCI/ADR-RES ovarian was greater than 100 µM throughout.

For the compound `CC(CC(=O)O)(CC(=O)O)C(=O)O`, the TGI in the test on IGROV1 ovarian, with UACC-62 melanoma, in the test with A498 renal, with EKVX NSCLC, in the test on OVCAR-8 ovarian and in the test on UO-31 renal was greater than 100 µM throughout. Also, the TGI in the test with HOP-62 NSCLC, in the test with HCT-15 colon, with SNB-19 CNS and in the test on NCI/ADR-RES ovarian was greater than 100 µM throughout.

As for `CCCC/C(=N\N=C(N)N)c1ccc(F)cc1`, the GI50 in the test with IGROV1 ovarian is 5.06 µM; in the test with UACC-62 melanoma, 3.14 µM; with A498 renal, 2.59 µM; in the test on EKVX NSCLC it was 4.5 µM; with OVCAR-8 ovarian, 3.61 µM; in the test on UO-31 renal, 5.28 µM. For the same compound, the GI50 was 3.81 µM with HOP-62 NSCLC, 2.49 µM in the test on HCT-15 colon, 2.64 µM in the test with SNB-19 CNS and 2.38 µM in the test on NCI/ADR-RES ovarian. Besides, the TGI stood at 20.9 µM in the test on IGROV1 ovarian; 14.8 µM with UACC-62 melanoma; 8.08 µM with A498 renal; 25.5 µM with EKVX NSCLC; 15.2 µM in the test on OVCAR-8 ovarian; 20.1 µM in the test with UO-31 renal. In addition, the TGI in the test with HOP-62 NSCLC is 15.8 µM; with HCT-15 colon, 14.2 µM; in the test on SNB-19 CNS it was 13.8 µM; in the test with NCI/ADR-RES ovarian, 8.29 µM.

For `COc1ccc(S(=O)(=O)N/N=C/C(=O)O)cc1`, the TGI with IGROV1 ovarian is 1060 µM; with UACC-62 melanoma, 984 µM; with A498 renal, 1210 µM; in the test on EKVX NSCLC, greater than 1250 µM; in the test with OVCAR-8 ovarian, 1100 µM; in the test with UO-31 renal it was greater than 1250 µM. Also, the TGI in the test with HOP-62 NSCLC is 1130 µM; in the test on HCT-15 colon it was 1080 µM; in the test with SNB-19 CNS, greater than 1250 µM; with NCI/ADR-RES ovarian, 1030 µM.

With `Cc1ccc(NCSc2ccc(Cl)cc2)cc1`, the GI50 is 15.3 µM in the test with IGROV1 ovarian; 87.2 µM in the test on UACC-62 melanoma; 18.8 µM in the test with A498 renal; 31.4 µM in the test with EKVX NSCLC; greater than 100 µM in the test on OVCAR-8 ovarian; 1.65 µM with UO-31 renal. Further, the GI50 in the test with HOP-62 NSCLC was 30.7 µM; in the test on HCT-15 colon it was greater than 100 µM; in the test with SNB-19 CNS, 46.9 µM; in the test on NCI/ADR-RES ovarian it was greater than 100 µM. In addition, the TGI in the test with IGROV1 ovarian is greater than 100 µM; in the test with UACC-62 melanoma, greater than 100 µM; with A498 renal, greater than 100 µM; with EKVX NSCLC, greater than 100 µM; with OVCAR-8 ovarian it was greater than 100 µM; with UO-31 renal it was 30.8 µM. For the same compound, the TGI in the test with HOP-62 NSCLC, in the test with HCT-15 colon, in the test with SNB-19 CNS and in the test on NCI/ADR-RES ovarian was greater than 100 µM each time.

On to `Cc1ccc(C2=Nc3c(N)ncnc3NC(c3cccc(Nc4ccnc5cc(C(F)(F)F)ccc45)c3)C2)cc1` (stereo not given), for which the GI50 in the test on IGROV1 ovarian is 4.93 µM; with UACC-62 melanoma it was 4.78 µM; in the test on A498 renal, 1.76 µM; in the test with EKVX NSCLC it was 3.95 µM; with OVCAR-8 ovarian, 5.89 µM; with UO-31 renal it was 2.79 µM. Moreover, the GI50 was 5.38 µM in the test on HOP-62 NSCLC, 2.82 µM in the test on HCT-15 colon, 6.71 µM in the test on SNB-19 CNS and 2.96 µM in the test with NCI/ADR-RES ovarian. The TGI is 90.9 µM in the test on IGROV1 ovarian; 26.8 µM in the test with UACC-62 melanoma; 6.81 µM in the test with A498 renal; greater than 100 µM in the test on EKVX NSCLC; 76.7 µM in the test on OVCAR-8 ovarian; 22.8 µM with UO-31 renal. For the same compound, the TGI in the test with HOP-62 NSCLC is 52.1 µM; with HCT-15 colon, 16.5 µM; in the test on SNB-19 CNS it was greater than 100 µM; with NCI/ADR-RES ovarian, 10.2 µM.

Turning to `O=c1oc(-c2ccc(O)c(O)c2)cc2cc(O)cc(O)c12`, the GI50 in the test with IGROV1 ovarian was 2.19 µM; in the test with UACC-62 melanoma, 33.8 µM; with A498 renal it was 27.3 µM; in the test on EKVX NSCLC it was 28.4 µM; in the test with OVCAR-8 ovarian, 42.1 µM; with UO-31 renal it was 18.5 µM. The GI50 is 33 µM with HOP-62 NSCLC, 57.1 µM in the test with HCT-15 colon, 56.3 µM in the test with SNB-19 CNS and 33.5 µM in the test with NCI/ADR-RES ovarian. Besides, the TGI in the test with IGROV1 ovarian is 43.2 µM; in the test on UACC-62 melanoma, greater than 100 µM; in the test on A498 renal, 56.7 µM; with EKVX NSCLC it was 91.3 µM; in the test with OVCAR-8 ovarian, greater than 100 µM; in the test with UO-31 renal, greater than 100 µM. In addition, the TGI in the test on HOP-62 NSCLC was 90.4 µM; in the test with HCT-15 colon, greater than 100 µM; in the test with SNB-19 CNS, greater than 100 µM; in the test with NCI/ADR-RES ovarian, greater than 100 µM.
